Source: ChEMBL document CHEMBL4011595, “Design, synthesis and structure-activity relationship studies of novel free fatty acid receptor 1 agonists bearing amide linker” (Bioorg Med Chem, 2017)

Key:
Mus musculus [1] = assay: Anti-diabetic activity in ICR mouse assessed as reduction in blood glucose AUC at 50 mg/kg, po pretreated for 60 mins followed by glucose challenge measured after 120 mins by OGTT relative to control; format: functional; design: scale not given: the % may be the effect or the level left
Mus musculus [2] = assay: Decrease in plasma glucose level in po dosed ICR mouse 60 mins before oral glucose challenge by OGTT method; format: functional, organism-based; conditions: TDE = time-dependent effect
[3] = molecular target: T1, Free fatty acid receptor 1 (Homo sapiens, UniProt O14842); assay: Agonist activity at human FFA1 expressed in CHO cells assessed as increase in intracellular Ca2+ flux at 1 uM measured for 90 secs by Fluo4-AM dye based FLIPR assay relative to control; format: functional, cell-based
Mus musculus [4] = assay: Antidiabetic activity in HFD/STZ-induced type2 diabetic C57BL/6 mouse assessed as decrease in blood glucose excursion administered as single oral dose pretreated for 60 mins followed by glucose challenge after 120 mins by OGTT; format: functional
Mus musculus [5] = assay: Anti-diabetic activity in ICR mouse assessed as reduction in blood glucose level at 50 mg/kg, po pretreated for 60 mins followed by glucose challenge measured after 120 mins by OGTT relative to control; format: functional; design: scale not given: the % may be the effect or the level left
Mus musculus [6] = assay: Antidiabetic activity in HFD/STZ-induced type2 diabetic C57BL/6 mouse assessed as decrease in blood glucose AUC at 100 mg/kg, po administered as single dose 60 mins prior to glucose challenge measured 120 mins post dose by OGTT relative to control; format: functional; design: scale not given: the % may be the effect or the level left
Mus musculus [7] = assay: Anti-diabetic activity in ICR mouse assessed as reduction in blood glucose level at 200 mg/kg, po pretreated for 60 mins followed by glucose challenge measured after 120 mins by OGTT relative to control; format: functional; design: scale not given: the % may be the effect or the level left
[8] = molecular target: T1, Free fatty acid receptor 1; assay: Agonist activity at FFA1 (unknown origin)
Mus musculus [9] = assay: Antidiabetic activity in HFD/STZ-induced type2 diabetic C57BL/6 mouse assessed as decrease in blood glucose AUC at 20 mg/kg, po administered as single dose 60 mins prior to glucose challenge measured 120 mins post dose by OGTT relative to control; format: functional; design: scale not given: the % may be the effect or the level left

T1 sequence (O14842 whole entry): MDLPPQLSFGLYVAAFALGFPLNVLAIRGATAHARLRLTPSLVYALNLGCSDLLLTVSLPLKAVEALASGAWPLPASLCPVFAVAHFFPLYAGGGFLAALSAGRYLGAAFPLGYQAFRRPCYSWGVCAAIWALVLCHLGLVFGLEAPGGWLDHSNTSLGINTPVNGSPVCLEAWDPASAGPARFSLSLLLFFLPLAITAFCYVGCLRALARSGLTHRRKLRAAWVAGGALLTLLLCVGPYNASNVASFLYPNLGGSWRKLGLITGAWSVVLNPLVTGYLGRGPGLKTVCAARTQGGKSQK

| Activity [3] [%] | SMILES | further results |
| --- | --- | --- |
| 29.4 | Cc1cccc(C(=O)Nc2ccc(CCC(=O)O)cc2)c1 | Activity (Mus musculus [1]): 20.3%; Activity (Mus musculus [2]): Tde |
| 45.8 | Cc1cccc(C)c1-c1cccc(C(=O)Nc2ccc(CCC(=O)O)cc2)c1 | Activity (Mus musculus [1]): 23.7%; Activity (Mus musculus [2]): Tde; Activity (Mus musculus [4]): Dose-dependent effect; Activity (Mus musculus [5]): 23.7%; Activity (Mus musculus [6]): 29.1% |
| 19.4 | Cc1ccc(C(=O)Nc2ccc(CCC(=O)O)cc2)cc1 |  |
| 7.73 | O=C(O)CCc1ccc(NC(=O)c2ccccc2Cl)cc1 |  |
|  | CN(C)C(=N)NC(=N)N [METFORMIN] | Activity (Mus musculus [7]): 27.8% |
| 17.9 | O=C(O)CCc1ccc(NC(=O)c2ccc(Cl)cc2)cc1 |  |
|  | CC#C[C@@H](CC(=O)O)c1ccc(NC(=O)C(=O)Nc2cccc(C(C)(C)C)c2)cc1 | EC50 [8]: 4 nM |
| 15.4 | O=C(O)CCc1ccc(NC(=O)c2ccsc2)cc1 |  |
| 19.8 | COc1cccc(C(=O)Nc2ccc(CCC(=O)O)cc2)c1 |  |
| 18.8 | O=C(O)CCc1ccc(NC(=O)c2ccccc2)cc1 |  |
| 34.3 | O=C(O)CCc1ccc(NC(=O)c2cccc(Oc3ccccc3)c2)cc1 | Activity (Mus musculus [1]): 12.8%; Activity (Mus musculus [2]): Tde |
| 13.8 | O=C(O)CCc1ccc(NC(=O)c2cccs2)cc1 |  |
| 21.4 | CC(C)(C)c1ccc(C(=O)Nc2ccc(CCC(=O)O)cc2)cc1 | Activity (Mus musculus [2]): Tde |
| 0.19 | O=C(O)CCc1ccc(NC(=O)c2ccccc2[N+](=O)[O-])cc1 |  |
| 4.29 | O=C(O)CCc1ccc(NC(=O)c2cccnc2)cc1 |  |
| 25.4 | O=C(O)CCc1ccc(NC(=O)c2cccc(Cl)c2)cc1 | Activity (Mus musculus [2]): Tde |
| 15.3 | O=C(O)c1ccc(NC(=O)c2ccc(C(=O)c3ccccc3)cc2)cc1 |  |
| 5.67 | Cc1ccccc1C(=O)Nc1ccc(CCC(=O)O)cc1 |  |
| 83.8 | O=C(O)CCc1ccc(NCc2cccc(Oc3ccccc3)c2)cc1 |  |
| 1.26 | COc1ccccc1C(=O)Nc1ccc(CCC(=O)O)cc1 |  |
| 96.3 | Cc1cc(OCCCS(C)(=O)=O)cc(C)c1-c1cccc(COc2ccc3c(c2)OC[C@H]3CC(=O)O)c1 [FASIGLIFAM] | Activity (Mus musculus [9]): 39.1% |
